Patent publication US9499614B2, “Methods for modulating protein glycosylation profiles of recombinant protein therapeutics using monosaccharides and oligosaccharides” (AbbVie, Inc., priority 2013, dated 2016)

Tested on: Cell Line 3
Experiment: N-glycan oligosaccharide profiling, Cell Line 3 shake flasks (Example 2)
Assay type: cell-based, Chinese Hamster
Details: 30 mM supplement vs control
Experimental: Two recombinant Chinese Hamster Ovary (CHO) cell lines expressing two different recombinant glycoproteins were evaluated in two different cultures vessels (shaker flasks and 3 L laboratory scale bioreactors). Cell Line 1 expressed Antibody 1, Cell Line 2 expressed Dual Variable Domain Immunoglobulin 1 (DVD 1) and Cell Line 3 expressed Antibody 2. Antibodies 1 and 2 are IgG1 proteins, and DVD 1 is an immunoglobulin with two variable domains as documented previously (Wu C. et al., (2007) Nat. Biotechnol 25(11):1290-1297). All cell lines were of CHO DUX-B11 origin based on a dhfr (dihydrofolate reductase) expression system. All cell lines were cultured in the same chemically defined basal media. Cell lines 1 and 2 were fed with the same chemically-defined feed media, but Cell Line 1 was fed media that was formulated at a 50% higher concentration. Each of the respective media were supplemented with either sucrose or tagatose to evaluate their potential impact on the resulting N-glycan oligosaccharide profile. All sugars were purchased from Sigma-Aldrich (St. Louis, Mo.). In preparation of the cultures, the cell lines were serially expanded through separate seed train inoculums to generate enough cells for inoculation.
Purified antibodies subjected to additional analytical characterization were purified using MabSelect™ Protein A (GE Healthcare, Piscataway, N.J.) using a low pH, step elution gradient, followed by buffer exchange using Corning Lifesciences (Tewksbury, Mass.) Spin Concentrator X UF columns according to the manufacturers' recommended procedures.
Approximately 200 μg of Protein A purified samples from Cell Lines 1 and 2 were treated with N-glycanase at 37° C. overnight to remove the N-glycans from the protein. The protein was precipitated and the supernatant was taken for subsequent chemical derivatization of the reducing end of the released glycans with 2-aminobenzamide (2-AB) dye. Following the derivatization step, the excess label was removed using clean up cartridges and the samples were analyzed using normal phase HPLC with fluorescent detection. Mobile phase A was 100% acetonitrile and mobile phase B was 50 mM ammonium formate pH 4.4. The glycans were eluted from a polyamide column (Prozyme, Hayward, Calif.) using a shallow gradient. The labeled glycans were detected using a fluorescence detector with an excitation wavelength of 330 nm and an emission wavelength of 420 nm.
Cell Line 3 was evaluated in shake flask culture in chemically defined media supplemented with 7, 15, and 30 mM sucrose. There was a significant increase in overall mannosylation levels, and thus a significant decrease in overall fucosylation levels. […] This cumulative increase of 19% in overall mannosylated N-glycans was accompanied by a 27% drop in NGA2F species, the majority of which was precluded from being formed due to the abrogation of the N-glycan biosynthetic reaction shown in FIG. 2. […] Antibody 3, purified from the sucrose supplemented cell cultures, was tested in a Cr-51 release assay to evaluate effector function, specifically ADCC activity. This was performed to verify that the lower level of fucosylated N-glycans linked to Antibody 3 would facilitate an increase in ADCC activity. Antibodies purified from the 30 mM sucrose supplemented culture had the highest levels of high mannose N-glycans, and lowest levels of fucosylated N-glycans.

OC[C@H]1O[C@@](CO)(O[C@H]2O[C@H](CO)[C@@H](O)[C@H](O)[C@H]2O)[C@@H](O)[C@@H]1O [sucrose]
cumulative increase in overall mannosylated N-glycans: 19%
decrease in overall fucosylation level: 19%
drop in NGA2F species: 27%
increase in Man 5 species: 17%
increase in Man 6 species: 1%
increase in Man 7 species: 1%
increase in NGA2F-GlcNAc species: 8%
